Data: publication PMC9217908, “Screening of commonly prescribed drugs for effects on the CAT1-mediated transport of L-arginine and arginine derivatives” (Amino Acids, 2022)
Read-outs that look alike come from different tables or passages of the source.

How the values were obtained:
Assay in all cases: cell-based
[1] = biological target: T1, CAT1 (cationic amino acid transporter 1, CAT1/SLC7A1) (Homo sapiens, UniProt P30825); parameters: species or system HEK-CAT1 (HEK293 stably transfected); Inhibition of net CAT1-mediated [3H]-L-arginine (100 uM) uptake, 5 min, scintillation counting, vector control subtracted; details: HEK293, L-arginine 100 uM as substrate; for inhibition at 20 µM: read-out: % Inhibition of L-arginine uptake at 20 µM; for inhibition at 200 µM: read-out: % Inhibition of L-arginine uptake at 200 µM
T1 construct: full-length human transporter stably transfected in HEK cells (HEK-CAT1); net uptake against HEK-VC vector control cells
T1 sequence (P30825 whole entry): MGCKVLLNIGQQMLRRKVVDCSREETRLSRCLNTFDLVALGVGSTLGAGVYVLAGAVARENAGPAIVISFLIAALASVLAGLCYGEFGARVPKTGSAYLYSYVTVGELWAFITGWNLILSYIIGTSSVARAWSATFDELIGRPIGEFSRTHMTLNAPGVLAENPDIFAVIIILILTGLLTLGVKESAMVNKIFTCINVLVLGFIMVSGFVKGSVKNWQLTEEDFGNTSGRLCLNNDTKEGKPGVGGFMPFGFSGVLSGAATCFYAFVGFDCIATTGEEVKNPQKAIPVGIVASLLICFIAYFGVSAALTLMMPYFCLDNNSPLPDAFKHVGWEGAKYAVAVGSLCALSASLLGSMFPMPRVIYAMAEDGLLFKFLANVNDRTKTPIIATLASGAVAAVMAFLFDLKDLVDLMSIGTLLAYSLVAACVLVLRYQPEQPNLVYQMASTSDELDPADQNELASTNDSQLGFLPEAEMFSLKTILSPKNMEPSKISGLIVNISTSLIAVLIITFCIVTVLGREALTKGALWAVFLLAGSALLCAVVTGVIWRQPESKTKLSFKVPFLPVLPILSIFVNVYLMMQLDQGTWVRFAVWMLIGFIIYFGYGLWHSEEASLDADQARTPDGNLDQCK
Experimental: (§1) Uptake and inhibition assays using HEK-CAT1 and HEK-VC cells and L-arginine, L-homoarginine, and ADMA as substrates were performed using the protocol described (Strobel et al. [2012]; Chafai et al. [2017]). Briefly, after incubation, the supernatant was replaced with transport buffer containing [^3H]- L-arginine for 5 min and 2.5 min for medium containing [^3H]-L-homoarginine or [^3H]-ADMA with or without the test compound. The reference drugs were screened at concentrations of 20 µM (Figs. 1A, 2A, and 3A) and 200 µM (Figs. 1B, 2B, and 3B). […] The net uptake was determined by subtracting the total amount taken up by control cells from the amount taken up by CAT1-expressing cells, which was expressed as a percentage of the amount taken up by the control. To determine the inhibitory effects of the drugs on CAT1-mediated transport of L-arginine, L-homoarginine, or ADMA, the control was measured in the absence of the potential inhibitor. The value for the percent inhibition was calculated as: Inhibition (%) = 100 – (V/V0 ^* 100), where V and V0 are the net uptake rates (uptake into HEK-CAT1 cells—uptake into HEK-VC cells) with and without test drugs, respectively. […] Each bar represents the effect of one compound on CAT1-mediated L-arginine (100 μM) uptake as percent inhibition. Data were obtained from at least two independent experiments performed in triplicate (n = 6–9) and each test data from the independent experiment were normalized to the respective control data to get the value of percent inhibition. Negative inhibition values indicate stimulated CAT1-mediated uptake. Data were analyzed using one-way ANOVA and Dunnett’s multiple comparison test with p < 0.05. Bars showing a statistically significant inhibition or transport stimulation are shaded in black

[2] = biological target: T1, CAT1 (cationic amino acid transporter 1, CAT1/SLC7A1); parameters: species or system HEK-CAT1 (HEK293 stably transfected); Inhibition of net CAT1-mediated [3H]-L-homoarginine (1 uM) uptake, 2.5 min, scintillation counting, vector control subtracted; details: HEK293, L-homoarginine 1 uM as substrate; for inhibition at 20 µM: read-out: % Inhibition of L-homoarginine uptake at 20 µM; for inhibition at 200 µM: read-out: % Inhibition of L-homoarginine uptake at 200 µM
Experimental: as §1, with “L-homoarginine (1” for “L-arginine (100”

[3] = biological target: T1, CAT1 (cationic amino acid transporter 1, CAT1/SLC7A1); parameters: species or system HEK-CAT1 (HEK293 stably transfected); Inhibition of net CAT1-mediated [3H]-ADMA (1 uM) uptake, 2.5 min, scintillation counting, vector control subtracted; details: HEK293, ADMA 1 uM as substrate; for inhibition at 20 µM: read-out: % Inhibition of ADMA uptake at 20 µM; for inhibition at 200 µM: read-out: % Inhibition of ADMA uptake at 200 µM
Experimental: as §1, with “ADMA (1” for “L-arginine (100”

Row | inhibition at 20 µM [1] [%] | inhibition at 200 µM [1] [%] | inhibition at 20 µM [2] [%] | inhibition at 200 µM [2] [%] | inhibition at 20 µM [3] [%] | inhibition at 200 µM [3] [%] | SMILES
1 | -6.3 ± 5.9 | -8.5 ± 1.5 | -3.2 ± 2 | -10.8 ± 1.6 | -4.7 ± 2.1 | 20.7 ± 14.1 | c1c[nH]cn1 [Imidazole]
2 | 5.2 ± 3 | 1.3 ± 2.9 | -4.6 ± 1.9 | 0.3 ± 3.1 | -2.9 ± 1.7 | -6.6 ± 15.4 | O[C@@H](CNC[C@H](O)[C@H]1CCc2cc(F)ccc2O1)[C@@H]1CCc2cc(F)ccc2O1 (racemic) [Nebivolol]
3 | -2.6 ± 3.2 | 0.4 ± 2.1 | -2.9 ± 2.8 | -1.1 ± 2.2 | -24.9 ± 8.3 | -17.5 ± 1.8 | CCCN(CCC)S(=O)(=O)c1ccc(C(=O)O)cc1 [Probenecid]
4 | 22.3 ± 1.8 | 29.2 ± 2.7 | -16.8 ± 3.4 | 29.5 ± 2.7 | -13.4 ± 3.7 | -1 ± 4.5 | OCCN1CCN(CCCN2c3ccccc3C=Cc3ccccc32)CC1 [Opipramol]
5 | 4.6 ± 3.8 | -12.6 ± 5 | 6.4 ± 3.1 | -11.4 ± 3.8 | 1.6 ± 1.9 | 15.7 ± 0.8 | NCCCC[C@H](N[C@@H](CCc1ccccc1)C(=O)O)C(=O)N1CCC[C@H]1C(=O)O [Lisinopril]
6 | 7.4 ± 5.9 | -10.5 ± 3.3 | 8.2 ± 5.4 | -10.1 ± 0.5 | -1.6 ± 3.4 | -35.3 ± 0.8 | C#C[C@]1(O)CC[C@H]2[C@@H]3CCc4cc(O)ccc4[C@H]3CC[C@@]21C [Ethinylestradiol]

The remaining lines, values behind:

Row | SMILES | inhibition at 20 µM [1] [%] | inhibition at 200 µM [1] [%] | inhibition at 20 µM [2] [%] | inhibition at 200 µM [2] [%] | inhibition at 20 µM [3] [%] | inhibition at 200 µM [3] [%]
7 | C[C@H](CS)C(=O)N1CCC[C@H]1C(=O)O [Captopril] | 0.6 ± 4.7 | -15.1 ± 13.1 | 0.1 ± 4.5 | -15.9 ± 3 | 0.5 ± 2.1 | -19.6 ± 2.2
8 | CC(C)NCC(O)COc1ccc(COCCOC(C)C)cc1 (stereo not drawn) [Bisoprolol] | -13.1 ± 0.7 | -17.2 ± 15.5 | -11.1 ± 1.9 | -14.9 ± 2.5 | -2.8 ± 1.6 | 16.2 ± 4.2
9 | CC[C@H]1OC(=O)[C@H](C)[C@@H](O[C@H]2C[C@@](C)(OC)[C@@H](O)[C@H](C)O2)[C@H](C)[C@@H](O[C@@H]2O[C@H](C)C[C@H](N(C)C)[C@H]2O)[C@](C)(OC)C[C@@H](C)C(=O)[C@H](C)[C@@H](O)[C@]1(C)O [Clarithromycin] | -16.8 ± 2.1 | -14.3 ± 6.2 | -2.4 ± 2.1 | -13.6 ± 3.3 | -3.9 ± 5.3 | -72.9 ± 1.6
10 | CCOC(=O)C1=C(COCCN)NC(C)=C(C(=O)OC)C1c1ccccc1Cl (stereo not drawn) [Amlodipine] | -3.9 ± 5.2 | -2.6 ± 3.9 | -9.3 ± 3.3 | -3.9 ± 4.6 | -7.3 ± 1.7 | 4 ± 9.5
11 | CCCCNc1cc(C(=O)O)cc(S(N)(=O)=O)c1Oc1ccccc1 [Bumetanide] | 9 ± 4 | -10.1 ± 1.7 | 8.9 ± 4.1 | -8.6 ± 1.9 | -2.8 ± 6.2 | -9.7 ± 5.6
12 | N=C(N)NC(=O)c1nc(Cl)c(N)nc1N [Amiloride] | -0.1 ± 9.7 | 10.9 ± 3.9 | 1.5 ± 3.2 | 12.6 ± 2.6 | 1.5 ± 3.2 | -17.1 ± 2.3
13 | CC1(C)S[C@@H]2[C@H](NC(=O)[C@H](N)c3ccc(O)cc3)C(=O)N2[C@H]1C(=O)O [Amoxicillin] | 14.9 ± 2 | 5.9 ± 2.9 | 13.3 ± 1 | 8.8 ± 1.1 | 2.7 ± 5.9 | 10.2 ± 3.2
14 | CN(C)CCCC1(c2ccc(F)cc2)OCc2cc(C#N)ccc21 (stereo not drawn) [Citalopram] | -16.7 ± 9.2 | 42.8 ± 4.1 | 8.8 ± 3.3 | 29.6 ± 3.1 | 8.8 ± 3.3 | -15.6 ± 8.1
15 | C[C@H]1O[C@@H](O[C@H]2[C@@H](O)C[C@H](O[C@H]3[C@@H](O)C[C@H](O[C@H]4CC[C@@]5(C)[C@H](CC[C@@H]6[C@@H]5CC[C@]5(C)[C@@H](C7=CC(=O)OC7)CC[C@]65O)C4)O[C@@H]3C)O[C@@H]2C)C[C@H](O)[C@@H]1O [Digitoxin] | -7.2 ± 8.2 | -14.1 ± 4.2 | -7.2 ± 2.7 | -12.6 ± 2.5 | 4.3 ± 3.3 | 21.5 ± 2.5
16 | C[C@H]1O[C@@H](O[C@H]2[C@@H](O)C[C@H](O[C@H]3[C@@H](O)C[C@H](O[C@H]4CC[C@@]5(C)[C@H](CC[C@@H]6[C@@H]5C[C@@H](O)[C@]5(C)[C@@H](C7=CC(=O)OC7)CC[C@]65O)C4)O[C@@H]3C)O[C@@H]2C)C[C@H](O)[C@@H]1O [Digoxin] | -4.3 ± 7.3 | -14.9 ± 17.8 | -4.8 ± 6.8 | -12.7 ± 0.8 | -7.4 ± 5.9 | 14.4 ± 4.6
17 | O=C(O)Cc1ccccc1Nc1c(Cl)cccc1Cl [Diclofenac] | -15.9 ± 2.5 | -91.4 ± 5 | -15.1 ± 2.1 | -23.1 ± 2.2 | 26.1 ± 5.3 | -21.2 ± 2.8
18 | COc1ccc([C@@H]2Sc3ccccc3N(CCN(C)C)C(=O)[C@@H]2OC(C)=O)cc1 [Diltiazem] | -7.3 ± 7.7 | 29.3 ± 2.5 | 8.6 ± 4.3 | 29 ± 2.6 | 8.5 ± 4.3 | 9.1 ± 7.7
